Results reported in US11439642B2 (Adverio Pharma GmbH, priority 2010, dated 2022).

Columns and labels:
[1] = Pharmacokinetic parameters following intravenous administration in rats; assay type: in vivo; conditions: rat; for MRT / half-life: male, Wistar, plasma, iv
Method: The pharmacokinetic parameters of the substance are determined in male CD-1 mice, male Wistar rats and female beagles. The administration volume is 10 ml/kg for mice, 5 ml/kg for rats and 0.5 ml/kg for dogs. Intravenous administration is via a formulation of species-specific plasma/DMSO (99/1) in the case of mice and rats and via water/PEG400/ethanol (50/40/10) in the case of dogs. For easier removal of blood, a silicone catheter is inserted into the right Vena jugularis externa of the rats before the administration of substance. The surgical intervention takes place one day prior to the experiment with isofluran anaesthesia and administration of an analgetic (atropine/rimadyl (3/1) 0.1 ml s.c.). Substance administration is as i.v. bolus in the case of mice, as i.v. bolus or via a 15-minute infusion in the case of rats and via a 15-minute infusion in the case of dogs. Removal of blood is after 0.033, 0.083, 0.17, 0.5, 1, 2, 3, 4, 6, 7 and 24 hours in the case of mice and, after a 15-minute infusion, after 0.083, 0.25, 0.28 0.33, 0.42, 0.75, 1, 2, 3, 4, 6, 7 and 24 hours in the case of dogs and rats and after an i.v. bolus administration, after 0.033, 0.083, 0.17, 0.5, 1, 2, 3, 4, 6, 7 and 24 hours in the case of rats. For all species, oral administration of the dissolved substance via gavage is carried out based on a water/PEG400/ethanol formulation (50/40/10). Here, the removal of blood from rats and dogs is after 0.083, 0.17, 0.5, 0.75, 1, 2, 3, 4, 6, 7 and 24 hours. The blood is removed into heparinized tubes. The blood plasma is then obtained by centrifugation; if required, it can be stored at −20° C. until further processing.
An internal standard (ZK 228859) is added to the unknown samples, calibration samples and QCs, and the protein is precipitated using excess acetonitrile. After addition of an ammonium acetate buffer (0.01 M, pH 6.8 (Example 1/3) or pH 3.0 (Example 2)) and subsequent vortexing, the mixture is centrifuged at 1000 g and the supernatant is examined by LC-MS/MS (API 4000, AB Sciex). Chromatographic separation is carried out on an Agilent 1100-HPLC. The injection volume is 10 μl. The separation column used is a Phenomenex Luna 5μ C8(2) 100 A 50×2 mm, adjusted to a temperature of 40° C. For Example 1, a binary mobile phase gradient at 400 μl/min is used (A: 0.01M ammonium acetate buffer pH 6.8, B: 0.1% formic acid in acetonitrile): 0 min (90% A), 1 min (90% A), 3.5 min (15% A), 4.5 min (15% A), 4.6 min (90% A), 7 min (90% A). For Example 2, a binary mobile phase gradient at 500 μl/min is used instead (A: 0.01M ammonium acetate buffer pH 3.0, B: 0.1% formic acid in acetonitrile): 0 min (90% A), 1.5 min (90% A), 3.5 min (10% A), 4.5 min (10% A), 5 min (90% A), 7 min (90% A). For Example 3, a binary mobile solvent gradient at 500 μl/min is used instead (A: 0.01M ammonium acetate buffer pH 6.8, B: 0.1% formic acid in acetonitrile): 0 min (90% A), 1 min (90% A), 3 min (10% A), 4 min (10% A), 4.5 min (90% A), 6 min (90% A). The temperature of the Turbo V ion source is 500° C. The following MS instrument parameters are used: curtain gas 20 units (Example 1), 16 units (Example 2) or 15 units (Example 3), ion spray voltage 5 kV (Example 1/2) or 4.5 units (Example 3), gas 1 35 units (Example 1/3) or 25 units (Example 2), gas 2 30 units, CAD gas 4 units (Example 1/3) or 3 units (Example 2). The substances are quantified by peak heights or areas using extracted ion chromatograms of specific MRM experiments.
The plasma concentration/time plots determined are used to calculate the pharmacokinetic parameters such as AUC, Cmax, MRT (mean residence time), t1/2 (half life) and CL (clearance) employing the validated pharmacokinetic calculation programs KinEx (Vers. 2.5 and 3).
As the substance quantification is carried out in plasma, it is necessary to determine the blood/plasma distribution of the substance to be able to adjust the pharamacokinetic parameters in an appropriate manner. […]

rabbit aorta rings = assay: Vasorelaxant effect in vitro (phenylephrine-contracted aorta rings); conditions: Oryctolagus cuniculus, phenylephrine contraction, read-out: IC50 (concentration reducing height of phenylephrine contraction by 50%)
Method: Rabbits are stunned by a blow to the neck and exsanguinated. The aorta is removed, freed from adhering tissue and divided into rings of a width of 1.5 mm. The rings are placed individually under an initial tension in 5 ml organ baths with Krebs-Henseleit solution which is at 37° C., is gassed with carbogen and has the following composition (in each case mM): sodium chloride 119; potassium chloride: 4.8; calcium chloride dihydrate: 1; magnesium sulphate heptahydrate: 1.4; potassium dihydrogenphosphate: 1.2; sodium bicarbonate: 25; glucose: 10. The force of contraction is detected with Statham UC2 cells, amplified and digitized via A/D converters (DAS-1802 HC, Keithley Instruments, Munich) and recorded in parallel on chart recorders. To produce a contraction, phenylephrine is added to the bath cumulatively in increasing concentration. After several control cycles, the substance to be investigated is added in each further run in increasing dosage in each case, and the height of the contraction achieved is compared with the height of the contraction reached in the last preceding run. The concentration necessary to reduce the height of the control value by 50% is calculated from this (IC50 value). The standard administration volume is 5 μl and the proportion of DMSO in the bath solution corresponds to 0.1%.

[2] = 0.3 mg/kg i.v. bolus administration
[3] = 0.3 mg/kg i.v., 15-minute infusion

MRT [1, 2] | half-life [1, 2] | AUCnorm [1, 2] | CLblood [1, 2] | IC50 (rabbit aorta rings) | MRT [1, 3] | half-life [1, 3] | AUCnorm [1, 3] | CLblood [1, 3] | SMILES
2.3 h | 1.9 h | 1.36 kg·h/L | 1.02 lh/kg | 515 nM |  |  |  |  | COC(=O)N(CC(F)(F)F)c1c(N)nc(-c2nn(Cc3ccccc3F)c3ncc(F)cc23)nc1N [Example 3, Methyl {4,6-diamino-2-[5-fluoro-1-(2-fluorobenzyl)-1H-pyrazolo[3,4-b]pyridin-3-yl]pyrimidin-5-yl}(2,2,2-trifluoroethyl)carbamate]
 |  |  |  | 958 nM | 4.1 h | 3.4 h | 4.36 kg·h/L | 0.29 lh/kg | COC(=O)Nc1c(N)nc(-c2nn(Cc3ccccc3F)c3ncc(F)cc23)nc1N [Example 1, Methyl {4,6-diamino-2-[5-fluoro-1-(2-fluorobenzyl)-1H-pyrazolo[3,4-b]pyridin-3-yl]pyrimidin-5-yl}carbamate]
2.3 h | 1.7 h | 1.79 kg·h/L | 0.53 lh/kg | 251 nM |  |  |  |  | COC(=O)N(C)c1c(N)nc(-c2nn(Cc3ccccc3F)c3ncc(F)cc23)nc1N [Example 2]
